Assay: Phase I dose escalation study: safety, tolerability, DLT and MTD
Type: in vivo

## Cc1cccc2c1NC(=O)[C@@H](NC(=O)[C@H](CCC(F)(F)F)[C@H](CCC(F)(F)F)C(N)=O)N=C2c1cccc(F)c1 [BMS-986115]
Arm A QD 0.3 mg (N = 2)
  Fatigue (drug related AE, Grade 3 and 4): 0 n (%)
  Fatigue (drug related AE, all grades): 0 n (%)
  Flatulence (drug related AE, all grades): 0 n (%)
  Hypocalcaemia (drug related AE, Grade 3 and 4): 0 n (%)
  Hypocalcaemia (drug related AE, all grades): 0 n (%)
  Hypokalaemia (drug related AE, Grade 3 and 4): 0 n (%)
  Hypokalaemia (drug related AE, all grades): 0 n (%)
  Hyponatraemia (drug related AE, Grade 3 and 4): 0 n (%)
  Hyponatraemia (drug related AE, all grades): 0 n (%)
  Hypophosphataemia (drug related AE, Grade 3 and 4): 1 (50) n (%)
  Hypophosphataemia (drug related AE, all grades): 2 (100) n (%)
  Ileus (drug related AE, Grade 3 and 4): 0 n (%)
  Increased upper airway secretion (drug related AE, all grades): 0 n (%)
  Laryngeal pain (drug related AE, all grades): 0 n (%)
  Leucocytosis (drug related AE, Grade 3 and 4): 0 n (%)
  Mouth ulceration (drug related AE, all grades): 0 n (%)
  Nausea (drug related AE, Grade 3 and 4): 0 n (%)
  Nausea (drug related AE, all grades): 0 n (%)
  Pruritus (drug related AE, Grade 3 and 4): 0 n (%)
  Pruritus (drug related AE, all grades): 1 (50) n (%)
  Pulmonary embolism (drug related AE, Grade 3 and 4): 0 n (%)
  Rash (drug related AE, all grades): 1 (50) n (%)
  Rash maculopapular (drug related AE, all grades): 0 n (%)
  Sinusitis (drug related AE, all grades): 1 (50) n (%)
  Urticaria (drug related AE, Grade 3 and 4): 0 n (%)
  Vision blurred (drug related AE, all grades): 0 n (%)
  Vomiting (drug related AE, Grade 3 and 4): 0 n (%)
  Vomiting (drug related AE, all grades): 0 n (%)
  Weight decreased (drug related AE, all grades): 0 n (%)
Arm A QD 0.3 mg, 2 DLT evaluable patients
  No. of patients with DLTs: 0
Arm A QD 0.6 mg (N = 2)
  Abdominal distension (drug related AE, all grades): 0 n (%)
  Abdominal pain (drug related AE, Grade 3 and 4): 0 n (%)
  Abdominal pain (drug related AE, all grades): 0 n (%)
  Blood creatinine increased (drug related AE, all grades): 0 n (%)
  Colitis (drug related AE, Grade 3 and 4): 0 n (%)
  Cough (drug related AE, Grade 3 and 4): 0 n (%)
  Cough (drug related AE, all grades): 0 n (%)
  Decreased Appetite (drug related AE, Grade 3 and 4): 0 n (%)
  Decreased Appetite (drug related AE, all grades): 0 n (%)
  Dehydration (drug related AE, Grade 3 and 4): 0 n (%)
  Dehydration (drug related AE, all grades): 0 n (%)
  Dermatitis acneiform (drug related AE, all grades): 0 n (%)
  Diarrhoea (drug related AE, Grade 3 and 4): 0 n (%)
  Diarrhoea (drug related AE, all grades): 1 (50) n (%)
  Dry mouth (drug related AE, all grades): 0 n (%)
  Dry skin (drug related AE, all grades): 0 n (%)
  Dysgeusia (drug related AE, all grades): 0 n (%)
  Dyspepsia (drug related AE, all grades): 0 n (%)
  Dysphonia (drug related AE, all grades): 0 n (%)
  Fatigue (drug related AE, Grade 3 and 4): 0 n (%)
  Fatigue (drug related AE, all grades): 0 n (%)
  Flatulence (drug related AE, all grades): 0 n (%)
  Hypocalcaemia (drug related AE, Grade 3 and 4): 0 n (%)
  Hypocalcaemia (drug related AE, all grades): 0 n (%)
  Hypokalaemia (drug related AE, Grade 3 and 4): 0 n (%)
  Hypokalaemia (drug related AE, all grades): 0 n (%)
  Hyponatraemia (drug related AE, Grade 3 and 4): 0 n (%)
  Hyponatraemia (drug related AE, all grades): 0 n (%)
  Hypophosphataemia (drug related AE, Grade 3 and 4): 0 n (%)
  Hypophosphataemia (drug related AE, all grades): 1 (50) n (%)
  Ileus (drug related AE, Grade 3 and 4): 0 n (%)
  Increased upper airway secretion (drug related AE, all grades): 0 n (%)
  Laryngeal pain (drug related AE, all grades): 0 n (%)
  Leucocytosis (drug related AE, Grade 3 and 4): 0 n (%)
  Mouth ulceration (drug related AE, all grades): 0 n (%)
  Nausea (drug related AE, Grade 3 and 4): 0 n (%)
  Nausea (drug related AE, all grades): 1 (50) n (%)
  Pruritus (drug related AE, Grade 3 and 4): 0 n (%)
  Pruritus (drug related AE, all grades): 0 n (%)
  Pulmonary embolism (drug related AE, Grade 3 and 4): 0 n (%)
  Rash (drug related AE, all grades): 1 (50) n (%)

Source: PMC7523345 (Investigational new drugs, 2018)
